# Measured values published in article PMC12278645, “Design, synthesis, and antitumor activity of novel thioheterocyclic nucleoside derivatives by suppressing the c-MYC pathway” (Acta Pharmaceutica Sinica. B, 2025).
# How the values were obtained:
# [1] = system: CT26 (mouse colon cancer); experiment: CCK-8 anti-proliferation assay, CT26; format: cell-based; settings: CCK-8, 48 h, mean ± SD
# Description: (§1) To evaluate their spectrum of anti-proliferative activity, further CCK-8 assays were carried out with the selected compounds (5a/5b, 8a/8b, 33a/33b, and 36a/36b) on MCF-7 (human breast cancer), A375 (human malignant melanoma), DU145 (human prostate cancer), and CT26 (mouse colon cancer) cell lines. The selected compounds had moderate to potent antitumor activity on the four cell lines, indicating their broad spectrum of antitumor activity (Table 5).
# (§2) MCF-7, A375, and HeLa cells were cultured in DMEM, HCT116 cells were cultured in McCoy's 5A medium, and DU145 and CT26 were cultured in RPMI 1640 with 10% FBS, 1% penicillin-streptomycin solution (10,000 U/mL penicillin and 10,000 μg/mL streptomycin) at 37 °C under 5% CO2. The cells were seeded in 96-well plates (4 × 10^3 cells/well) overnight and then treated with various concentrations (1–50 μmol/L) of the compound. After 48 h, the cell viability was measured by CCK-8 assay. The absorbance of each well was measured using a microplate reader (Multiskan FC, Thermo Fisher Scientific, Massachusetts, USA) at 450 nm wavelength. Assays were performed in triplicate. Compound concentrations that inhibited cell growth by 50% (IC50) were calculated from the dose–response curves of each cell line. Data are mean ± SD values from three independent experiments.
# [2] = system: MCF-7 (human breast cancer); experiment: CCK-8 anti-proliferation assay, MCF-7; format: cell-based; settings: CCK-8, 48 h, mean ± SD
# Description: as §1, §2
# [3] = system: HeLa cells; experiment: CCK-8 anti-proliferation assay, HeLa; format: cell-based, human
# Description: (§3) Tumor cell anti-proliferation activities were determined by cell counting kit-8 (CCK-8) assay.
# as §2
# [4] = system: DU145 (human prostate cancer); experiment: CCK-8 anti-proliferation assay, DU145; format: cell-based; settings: CCK-8, 48 h, mean ± SD
# Description: as §1, §2
# [5] = system: HCT116 cells; experiment: CCK-8 anti-proliferation assay, HCT116; format: cell-based, human; settings: for anticancer activity: under 50 μmol/L, HeLa and HCT116
# Description: as §3, §2
# [6] = system: A375 (human malignant melanoma); experiment: CCK-8 anti-proliferation assay, A375; format: cell-based; settings: CCK-8, 48 h, mean ± SD
# Description: as §1, §2
# [7] = CCK-8, 48 h, mean ± SD, three independent experiments
# [8] = Homo sapiens, HeLa, 48 h, CCK-8, 48 h, mean ± SD, three independent experiments
# [9] = Homo sapiens, HCT-116, 48 h, CCK-8, 48 h, mean ± SD, three independent experiments
structure (smiles),measurement,setting,value
"CCOC(=O)C1(n2cnc3c(N4CCCCC4)ncnc32)CSCC1O (single isomer, unassigned) [5a]",IC50,[1],2.33 ± 0.14 µM
same,IC50,[2],11.2 ± 1.04 µM
same,IC50,[3]; [7],2.65 ± 0.52 µM
same,IC50,[4],42.8 ± 2.12 µM
same,IC50,[5]; [7],1.84 ± 0.14 µM
same,IC50,[6],11.8 ± 1.12 µM
"CCOC(=O)C1(n2cnc3c(N4CCCCC4)ncnc32)CSCC1O (single isomer, unassigned) [5b]",IC50,[1],2.42 ± 0.11 µM
same,IC50,[2],35.2 ± 2.14 µM
same,IC50,[3]; [7],4.61 ± 0.87 µM
same,IC50,[4],42.5 ± 2.11 µM
same,IC50,[5]; [7],1.77 ± 0.12 µM
same,IC50,[6],7.52 ± 1.03 µM
"CCCSc1ncnc2c1ncn2C1(C(=O)OCC)CSCC1O (single isomer, unassigned) [8a]",IC50,[1],2.58 ± 0.15 µM
same,IC50,[2],28.2 ± 2.16 µM
same,IC50,[3]; [7],2.77 ± 0.41 µM
same,IC50,[4],29.3 ± 1.37 µM
same,IC50,[5]; [7],3.43 ± 0.23 µM
same,IC50,[6],4.52 ± 1.12 µM
"CCCSc1ncnc2c1ncn2C1(C(=O)OCC)CSCC1O (single isomer, unassigned) [8b]",IC50,[1],2.37 ± 0.08 µM
same,IC50,[2],25.4 ± 2.45 µM
same,IC50,[3]; [7],2.55 ± 0.12 µM
same,IC50,[4],11 ± 1.04 µM
same,IC50,[5]; [7],2.02 ± 0.07 µM
same,IC50,[6],2.82 ± 0.03 µM
"CCOC(=O)C1(n2cnc3c(N4CCCC4)ncnc32)CSCC1O (single isomer, unassigned) [20a]",IC50,[3]; [7],11.4 ± 1.42 µM
same,IC50,[5]; [7],39.1 ± 1.35 µM
"CCOC(=O)C1(n2cnc3c(N4CCCC4)ncnc32)CSCC1O (single isomer, unassigned) [20b]",IC50,[3]; [7],12.2 ± 1.28 µM
same,IC50,[5]; [7],22.8 ± 1.04 µM
"CCOC(=O)C1(n2cnc3c(N4CCCCC4)nc(N)nc32)CSCC1O (single isomer, unassigned) [32a]",IC50,[3]; [7],5.35 ± 1.05 µM
same,IC50,[5]; [7],0.72 ± 0.08 µM
"CCOC(=O)C1(n2cnc3c(N4CCCCC4)nc(N)nc32)CSCC1O (single isomer, unassigned) [32b]",IC50,[3]; [7],5.37 ± 1.09 µM
same,IC50,[5]; [7],0.81 ± 0.12 µM
"CCOC(=O)C1(n2cnc3c(N4CCCCC4)nc(Cl)nc32)CSCC1O (single isomer, unassigned) [34a]",IC50,[3]; [7],4.86 ± 0.65 µM
same,IC50,[5]; [7],7.2 ± 0.39 µM
"CCOC(=O)C1(n2cnc3c(N4CCCCC4)nc(Cl)nc32)CSCC1O (single isomer, unassigned) [34b]",IC50,[3]; [7],4.05 ± 0.37 µM
same,IC50,[5]; [7],4.3 ± 0.51 µM
"CCCSc1nc(N)nc2c1ncn2C1(C(=O)OCC)CSCC1O (single isomer, unassigned) [35a]",IC50,[3]; [7],9.44 ± 1.27 µM
same,IC50,[5]; [7],0.73 ± 0.11 µM
"CCCSc1nc(N)nc2c1ncn2C1(C(=O)OCC)CSCC1O (single isomer, unassigned) [35b]",IC50,[3]; [7],8.49 ± 1.02 µM
same,IC50,[5]; [7],0.65 ± 0.21 µM
"CCCSc1nc(Cl)nc2c1ncn2C1(C(=O)OCC)CSCC1O (single isomer, unassigned) [37a]",IC50,[3]; [7],1.58 ± 0.36 µM
same,IC50,[5]; [7],3.81 ± 0.13 µM
"CCCSc1nc(Cl)nc2c1ncn2C1(C(=O)OCC)CSCC1O (single isomer, unassigned) [37b]",IC50,[3]; [7],5.98 ± 1.25 µM
same,IC50,[5]; [7],2.7 ± 0.04 µM
"CCOC(=O)C1(n2cnc3c(Cl)nc(N)nc32)CSCC1O (single isomer, unassigned) [38a]",IC50,"[3]; Table S3, CCK-8, mean ± SD",25.6 ± 2.13 µM
same,IC50,"[5]; Table S3, CCK-8, mean ± SD",30.5 ± 1.42 µM
"CCOC(=O)C1(n2cnc3c(Cl)nc(N)nc32)CSCC1O (single isomer, unassigned) [38b]",IC50,"[3]; Table S3, CCK-8, mean ± SD",22.5 ± 2.17 µM
same,IC50,"[5]; Table S3, CCK-8, mean ± SD",10.6 ± 1.02 µM
"CCOC(=O)C1(n2cnc3c(Cl)nc(F)nc32)CSCC1O (single isomer, unassigned) [39a]",IC50,"[3]; Table S3, CCK-8, mean ± SD",11.2 ± 1.32 µM
same,IC50,"[5]; Table S3, CCK-8, mean ± SD",3.42 ± 0.42 µM
"CCOC(=O)C1(n2cnc3c(Cl)nc(F)nc32)CSCC1O (single isomer, unassigned) [39b]",IC50,"[3]; Table S3, CCK-8, mean ± SD",9.33 ± 1.17 µM
same,IC50,"[5]; Table S3, CCK-8, mean ± SD",2.01 ± 0.24 µM
"CCOC(=O)C1(n2cnc3c(Cl)nc(Cl)nc32)CSCC1O (single isomer, unassigned) [40a]",IC50,"[3]; Table S3, CCK-8, mean ± SD",8.21 ± 1.25 µM
same,IC50,"[5]; Table S3, CCK-8, mean ± SD",5.37 ± 1.02 µM
"CCOC(=O)C1(n2cnc3c(Cl)nc(Cl)nc32)CSCC1O (single isomer, unassigned) [40b]",IC50,"[3]; Table S3, CCK-8, mean ± SD",4.45 ± 1.07 µM
same,IC50,"[5]; Table S3, CCK-8, mean ± SD",2.13 ± 0.46 µM
"CCOC(=O)C1(n2cnc3c(N4CCOCC4)nc(Cl)nc32)CSCC1O (single isomer, unassigned) [42a]",IC50,"[3]; Table S3, CCK-8, mean ± SD",6.32 ± 1.02 µM
same,IC50,"[5]; Table S3, CCK-8, mean ± SD",24.2 ± 1.32 µM
"CCOC(=O)C1(n2cnc3c(N4CCOCC4)nc(Cl)nc32)CSCC1O (single isomer, unassigned) [42b]",IC50,"[3]; Table S3, CCK-8, mean ± SD",3.21 ± 0.65 µM
same,IC50,"[5]; Table S3, CCK-8, mean ± SD",4.48 ± 0.56 µM
CCOC(=O)C1(n2cnc3cncnc32)CSCC1O (stereo not shown) [1a],IC50,[3]; [7],> 50 µM
same,IC50,[5]; [7],> 50 µM
same,anticancer activity,[5],no anticancer activity
"O=c1[nH]cc(F)c(=O)[nH]1 [5-FU, 5-fluorouracil, reference compound]",IC50,"[1]; Mus musculus, CT26",3.12 ± 0.13 µM
same,IC50,"[2]; Homo sapiens, MCF7",> 50 µM
same,IC50,[3]; [8],4.93 ± 1.02 µM
same,IC50,"[4]; Homo sapiens, DU-145",21.4 ± 2.17 µM
same,IC50,[5]; [9],9.84 ± 2.32 µM
same,IC50,"[6]; Homo sapiens, A-375",8.62 ± 1.21 µM
CCOC(=O)C1(n2cnc3c(OCC)ncnc32)CSCC1O (stereo not shown) [6a],IC50,[3]; [7],> 50 µM
same,IC50,[5]; [7],> 50 µM
CCOC(=O)C1(n2cnc3c(OC)ncnc32)CSCC1O (stereo not shown) [7a],IC50,[3]; [7],> 50 µM
same,IC50,[5]; [7],> 50 µM
CCOC(=O)C1(n2cnc3c(N4CCC(Cc5ccccc5)CC4)ncnc32)CSCC1O (stereo not shown) [16a],IC50,[3]; [7],3.34 ± 0.36 µM
same,IC50,[5]; [7],1.2 ± 0.09 µM
CCOC(=O)C1(n2cnc3c(N4CCN(C)CC4)ncnc32)CSCC1O (stereo not shown) [18a],IC50,[3]; [7],> 50 µM
same,IC50,[5]; [7],> 50 µM
same,anticancer activity,[5],inactive
CCOC(=O)[C@@]1(n2cnc3c(N4CCCCC4)nc(F)nc32)CSC[C@@H]1O [33 ab],IC50,[3]; [8],10.1 ± 1.02 µM
same,IC50,[5]; [9],0.21 ± 0.13 µM
CCOC(=O)[C@]1(n2cnc3c(N4CCCCC4)nc(F)nc32)CSC[C@H]1O [33aa],IC50,[3]; [8],6.17 ± 1.01 µM
same,IC50,[5]; [9],0.58 ± 0.17 µM
CCOC(=O)C1(n2cnc3c(N4CCCCC4)nc(F)nc32)CSCC1O (stereo not shown) [33b],IC50,[1],0.79 ± 0.14 µM
same,IC50,[2],7.47 ± 1.17 µM
same,IC50,[3]; [7],8.15 ± 1.08 µM
same,IC50,[4],18.6 ± 2.12 µM
same,IC50,[5]; [7],0.46 ± 0.04 µM
same,IC50,[6],14.67 ± 0.09 µM
CCCSc1nc(F)nc2c1ncn2C1(C(=O)OCC)CSCC1O (stereo not shown) [36a],IC50,[1],0.94 ± 0.11 µM
same,IC50,[2],11.3 ± 1.27 µM
same,IC50,[3]; [7],9.68 ± 1.12 µM
same,IC50,[4],9.48 ± 1.11 µM
same,IC50,[5]; [7],0.72 ± 0.12 µM
same,IC50,[6],4.27 ± 1.02 µM
CCCSc1nc(F)nc2c1ncn2[C@@]1(C(=O)OCC)CSC[C@@H]1O [36ba],IC50,[3]; [7],5.52 ± 1.12 µM
same,IC50,[5]; [7],0.89 ± 0.14 µM
CCCSc1nc(F)nc2c1ncn2[C@]1(C(=O)OCC)CSC[C@H]1O [36bb],IC50,[3]; [8],9.49 ± 1.18 µM
same,IC50,[5]; [9],0.37 ± 0.08 µM
CCOC(=O)C1(n2cnc3cnc(Cl)nc32)CSCC1O (stereo not shown) [41a],IC50,"[3]; Table S3, CCK-8, mean ± SD",> 50 µM
same,IC50,"[5]; Table S3, CCK-8, mean ± SD",> 50 µM
"N.N.[Cl][Pt][Cl] [Cisplatin, cisplatin, reference compound]",IC50,[1],22.5 ± 1.28 µM
same,IC50,[2],6.32 ± 0.74 µM
same,IC50,[3]; [7],11.2 ± 0.81 µM
same,IC50,[4],9.65 ± 0.48 µM
same,IC50,[5]; [7],5.29 ± 0.25 µM
same,IC50,[6],9.42 ± 0.87 µM
